Activity calls are given as the source filed them. The rule behind the calls is not given here.
Legend:
[1] = biological target: T1, Nuclear factor erythroid 2-related factor 2 (Homo sapiens) (UniProt Q16236); assay: Activation of NRF2 in human AREc32 cells incubated for 24 hrs by luciferase reporter gene assay; format: cell-based
T1 sequence (whole entry): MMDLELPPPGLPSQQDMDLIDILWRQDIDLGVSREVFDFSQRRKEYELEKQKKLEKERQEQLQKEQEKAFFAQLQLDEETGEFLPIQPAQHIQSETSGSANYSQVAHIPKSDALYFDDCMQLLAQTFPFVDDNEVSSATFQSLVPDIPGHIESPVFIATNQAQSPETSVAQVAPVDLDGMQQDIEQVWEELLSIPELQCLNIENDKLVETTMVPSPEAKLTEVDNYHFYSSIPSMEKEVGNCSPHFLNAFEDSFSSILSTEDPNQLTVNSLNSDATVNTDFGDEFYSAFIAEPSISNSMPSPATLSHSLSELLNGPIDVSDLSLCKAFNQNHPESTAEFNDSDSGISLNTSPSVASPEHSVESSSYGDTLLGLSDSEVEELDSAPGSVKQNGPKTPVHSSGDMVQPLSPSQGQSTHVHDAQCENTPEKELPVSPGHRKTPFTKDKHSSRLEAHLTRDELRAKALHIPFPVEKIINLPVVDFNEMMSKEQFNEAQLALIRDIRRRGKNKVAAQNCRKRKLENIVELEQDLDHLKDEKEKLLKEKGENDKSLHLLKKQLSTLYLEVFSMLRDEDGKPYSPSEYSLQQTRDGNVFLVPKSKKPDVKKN

[2] = biological target: Kelch-like ECH-associated protein 1 (Homo sapiens) (UniProt Q14145); assay: Binding affinity to human recombinant Keap1 Kelch domain expressed in Escherichia coli BL21 (DE3) by SPR assay
Chain of Kelch-like ECH-associated protein 1 (Homo sapiens) (Q14145 whole entry, the tested form may be a part): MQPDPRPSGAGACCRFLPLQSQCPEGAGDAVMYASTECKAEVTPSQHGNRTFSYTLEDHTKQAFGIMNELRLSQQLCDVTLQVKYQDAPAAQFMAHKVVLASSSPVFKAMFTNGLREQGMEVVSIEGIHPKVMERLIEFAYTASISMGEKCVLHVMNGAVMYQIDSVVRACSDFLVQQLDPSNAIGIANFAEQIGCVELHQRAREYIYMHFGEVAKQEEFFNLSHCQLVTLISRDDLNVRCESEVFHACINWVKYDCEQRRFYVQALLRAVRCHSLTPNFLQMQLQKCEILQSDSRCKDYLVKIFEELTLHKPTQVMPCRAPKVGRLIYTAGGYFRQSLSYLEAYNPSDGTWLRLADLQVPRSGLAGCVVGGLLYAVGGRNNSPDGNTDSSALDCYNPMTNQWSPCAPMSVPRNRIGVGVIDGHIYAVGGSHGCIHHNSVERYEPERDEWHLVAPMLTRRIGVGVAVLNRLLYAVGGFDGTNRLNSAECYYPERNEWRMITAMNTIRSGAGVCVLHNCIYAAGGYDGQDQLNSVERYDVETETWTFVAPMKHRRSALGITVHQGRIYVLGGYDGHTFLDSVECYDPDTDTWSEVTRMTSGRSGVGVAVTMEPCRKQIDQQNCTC

[3] = Antioxidant activity assessed as AAPH radical scavenging activity preincubated for 15 mins measured every min for 80 mins by ORAC-FL assay relative to trolox; format: functional
[4] = Displacement of [125l]-lodomelatonin from hamster brain cell QR2 incubated for 60 mins by scintillation counting analysis
[5] = Permeability of compound by PAMPA-BBB assay
Cricetinae = assay: Displacement of [125l]-lodomelatonin from hamster brain cell QR2 at 100 nM incubated for 60 mins by scintillation counting analysis relative to control; format: tissue-based
[6] = biological target: T2, Polyunsaturated fatty acid 5-lipoxygenase (Homo sapiens, UniProt P09917); assay: Inhibition of human 5-Lipoxygenase using H2DCFDA as substrate preincubated for 5 mins and measured by Spectrophotometric assay
T2 sequence (P09917 whole entry): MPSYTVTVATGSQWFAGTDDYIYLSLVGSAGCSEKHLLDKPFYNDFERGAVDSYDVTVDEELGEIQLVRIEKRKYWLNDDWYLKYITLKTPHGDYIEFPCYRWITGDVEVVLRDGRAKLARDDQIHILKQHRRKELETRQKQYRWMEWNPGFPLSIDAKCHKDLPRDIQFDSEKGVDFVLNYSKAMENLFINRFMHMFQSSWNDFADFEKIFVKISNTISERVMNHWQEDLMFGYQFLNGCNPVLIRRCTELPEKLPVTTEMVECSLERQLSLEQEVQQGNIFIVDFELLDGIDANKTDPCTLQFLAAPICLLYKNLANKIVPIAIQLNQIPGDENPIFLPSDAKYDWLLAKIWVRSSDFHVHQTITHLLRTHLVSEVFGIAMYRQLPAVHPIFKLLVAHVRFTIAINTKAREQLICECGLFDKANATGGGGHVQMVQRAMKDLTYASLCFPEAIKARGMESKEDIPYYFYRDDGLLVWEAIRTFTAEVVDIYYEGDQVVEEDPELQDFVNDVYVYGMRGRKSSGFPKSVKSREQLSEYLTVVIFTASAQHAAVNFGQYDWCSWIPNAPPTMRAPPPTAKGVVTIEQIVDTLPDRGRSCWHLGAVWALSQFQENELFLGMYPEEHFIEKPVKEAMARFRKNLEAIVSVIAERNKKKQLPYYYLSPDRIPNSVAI

[7] = biological target: T3, Melatonin receptor type 1A (Homo sapiens, UniProt P48039); assay: Displacement of [125l]-lodomelatonin from human MT1 receptor expressed in CHO cells incubated for 120 mins by scintillation counting analysis; format: cell-based
T3 sequence (P48039 whole entry): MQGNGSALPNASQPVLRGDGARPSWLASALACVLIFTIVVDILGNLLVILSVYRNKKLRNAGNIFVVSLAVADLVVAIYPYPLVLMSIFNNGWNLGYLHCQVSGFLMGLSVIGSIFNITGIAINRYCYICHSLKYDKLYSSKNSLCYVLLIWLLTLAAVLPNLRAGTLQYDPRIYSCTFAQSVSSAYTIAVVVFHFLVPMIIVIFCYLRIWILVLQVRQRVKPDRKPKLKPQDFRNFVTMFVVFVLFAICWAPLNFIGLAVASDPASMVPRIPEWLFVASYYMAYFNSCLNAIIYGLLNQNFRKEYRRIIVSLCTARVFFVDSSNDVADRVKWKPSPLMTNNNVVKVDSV

[8] = biological target: T4, Amine oxidase [flavin-containing] B (Homo sapiens, UniProt P27338)
T4 sequence (P27338 whole entry): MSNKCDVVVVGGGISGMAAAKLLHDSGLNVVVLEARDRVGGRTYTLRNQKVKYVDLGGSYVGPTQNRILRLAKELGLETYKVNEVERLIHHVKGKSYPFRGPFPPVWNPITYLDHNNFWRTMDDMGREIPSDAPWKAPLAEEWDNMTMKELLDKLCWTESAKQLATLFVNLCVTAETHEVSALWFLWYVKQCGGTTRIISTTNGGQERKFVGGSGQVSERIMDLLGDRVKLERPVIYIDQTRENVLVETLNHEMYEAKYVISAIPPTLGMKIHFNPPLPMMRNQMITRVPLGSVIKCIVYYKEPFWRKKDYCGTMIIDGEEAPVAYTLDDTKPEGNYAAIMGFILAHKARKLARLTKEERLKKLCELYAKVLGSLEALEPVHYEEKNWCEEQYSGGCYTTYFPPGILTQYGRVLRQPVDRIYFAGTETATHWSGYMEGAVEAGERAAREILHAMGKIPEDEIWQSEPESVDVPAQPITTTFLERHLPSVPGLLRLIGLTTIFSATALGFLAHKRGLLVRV
Description: Inhibition of human MAO-B using p-tyramine as substrate by Amplex Red reagent based fluorescence analysis

[9] = biological target: T5, Melatonin receptor type 1B (Homo sapiens, UniProt P49286); assay: Displacement of [125l]-lodomelatonin from human MT2 receptor expressed in CHO cells incubated for 120 mins by scintillation counting analysis; format: cell-based
T5 sequence (P49286 whole entry): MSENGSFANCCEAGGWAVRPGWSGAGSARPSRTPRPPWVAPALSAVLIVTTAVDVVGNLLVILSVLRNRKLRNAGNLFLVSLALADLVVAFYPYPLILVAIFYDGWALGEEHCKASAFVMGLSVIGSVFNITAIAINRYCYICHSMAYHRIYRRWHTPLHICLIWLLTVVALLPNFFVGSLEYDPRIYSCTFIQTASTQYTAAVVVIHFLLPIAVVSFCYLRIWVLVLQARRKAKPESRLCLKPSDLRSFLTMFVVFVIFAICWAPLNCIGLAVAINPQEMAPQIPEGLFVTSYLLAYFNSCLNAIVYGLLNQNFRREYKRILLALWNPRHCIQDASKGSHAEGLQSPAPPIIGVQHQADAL

[10] = biological target: T6, Amine oxidase [flavin-containing] A (Homo sapiens, UniProt P21397)
T6 sequence (P21397 whole entry): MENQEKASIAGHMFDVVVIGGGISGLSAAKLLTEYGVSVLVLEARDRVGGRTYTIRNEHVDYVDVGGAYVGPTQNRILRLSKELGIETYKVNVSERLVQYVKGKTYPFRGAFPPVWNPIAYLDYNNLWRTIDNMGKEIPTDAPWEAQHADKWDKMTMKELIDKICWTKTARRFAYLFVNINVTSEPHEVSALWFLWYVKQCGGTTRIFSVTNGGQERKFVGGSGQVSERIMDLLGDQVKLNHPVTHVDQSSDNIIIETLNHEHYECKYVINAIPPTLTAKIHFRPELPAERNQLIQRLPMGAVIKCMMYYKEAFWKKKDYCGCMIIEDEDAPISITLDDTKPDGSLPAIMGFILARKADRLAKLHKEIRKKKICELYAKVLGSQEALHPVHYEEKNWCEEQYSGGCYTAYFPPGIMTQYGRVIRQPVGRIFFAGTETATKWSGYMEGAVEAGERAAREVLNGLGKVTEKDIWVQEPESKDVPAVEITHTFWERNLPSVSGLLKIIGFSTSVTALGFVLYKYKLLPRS
Description: Inhibition of human MAO-A using p-tyramine as substrate by Amplex Red reagent based fluorescence analysis

[11] = biological target: T3, Melatonin receptor type 1A; assay: Displacement of [125l]-lodomelatonin from human MT1 receptor expressed in CHO cells incubated for 120 mins by scintillation counting analysis relative to control; format: cell-based

CCCn1nc(CCc2c[nH]c3ccc(OC)cc23)oc1=O
Activity ([1]; filed as activator): 2.3 equiv | Activity [2]: inactive

CCCCCCn1nc(CCc2c[nH]c3ccc(OC)cc23)oc1=O
Activity [3]: 3 equiv

COc1ccc2[nH]cc(/C=C/c3n[nH]c(=O)o3)c2c1
CD [1]: > 60 µM | Activity [2]: Active

COc1ccc2[nH]cc(CCNC(C)=O)c2c1 [MELATONIN]
Activity [3]: < 0.1 equiv | Ki [4]: 77 nM

COc1ccc2c(c1)C(/C=C/c1n[nH]c(=O)o1)=CCC2
CD [1]: > 30 µM

COc1ccc2[nH]cc(CCc3nn(CC4CCCC4)c(=O)o3)c2c1
Activity [3]: 2.8 equiv

C[S+]([O-])CCCCN=C=S (centres undefined)
CD ([1]; filed as activator): 0.54 µM

COc1ccc2[nH]cc(CCc3nn(CCCc4ccccc4)c(=O)o3)c2c1
Activity [3]: 2.7 equiv

C#CCNC(=O)/C=C/c1c[nH]c2ccc(OC)cc12
CD ([1]; filed as activator): 1.76 µM | Activity [2]: Active

COc1ccc2[nH]cc(CCc3n[nH]c(=O)o3)c2c1
Papp [5]: < 2 ×10⁻⁶ cm/s | inhibition (Cricetinae): 5% | Activity [3]: 2.7 equiv | Ki [4]: > 100 nM

CNc1nnc(CCc2c[nH]c3ccc(OC)cc23)o1
IC50 [6]: 60600 nM | Activity [3]: 1.8 equiv | Ki [4]: 330 nM | Ki [7]: 550 nM | IC50 [8]: 37000 nM | Ki [9]: 110 nM | IC50 [10]: > 50000 nM

C=CCNC(=O)/C=C/c1c[nH]c2ccc(OC)cc12
CD ([1]; filed as activator): 27.4 µM | Activity [2]: inactive

C#CCn1nc(/C=C/c2c[nH]c3ccc(OC)cc23)oc1=O
CD ([1]; filed as activator): 15.1 µM | Activity [2]: Active

COc1ccc2cccc(/C=C/c3n[nH]c(=O)o3)c2c1
CD [1]: > 30 µM

CCCCCCCn1nc(CCc2c[nH]c3ccc(OC)cc23)oc1=O
Activity [3]: 2.1 equiv

COc1ccc2[nH]cc(CCc3nn(CC4CCC4)c(=O)o3)c2c1
Activity [3]: 2.2 equiv

COc1ccc2[nH]cc(CC(C)c3n[nH]c(=O)o3)c2c1 (centres undefined)
CD [1]: > 30 µM | Activity [2]: inactive

COc1cc2cccc(/C=C/c3n[nH]c(=O)o3)c2cc1OC
inhibition [11]: 63% | CD [1]: > 30 µM | Activity [2]: inactive | Activity [3]: < 0.1 equiv | Ki [7]: > 1000 nM | Ki [9]: 69 nM

— ChEMBL document CHEMBL4765258 (Eur J Med Chem, 2020)
